The test system of one test is SW-620. Briefly: NCI 60 cell panel SRB screen. The format is cell-based. The settings on record: Homo sapiens; for activity at 10 µM: SW-620, single dose 10 μM, read-out: percent cell growth promotion; for GI50 / IC (TGI) / CC50: SW-620, 5 log dose; for CC50: 48 h, read-out: LC50 (the source's name).
Test [1] has as its system full NCI 60 cell panel. Briefly: NCI 60 cell panel SRB screen, whole panel. The format is cell-based, human. As to conditions: for activity at 10 µM / inhibition at 10 µM: Homo sapiens, 60 cell; for activity at 10 µM: mean over the panel, single dose 10 μM, read-out: Mean percent cell growth promotion; for cell growth inhibition, in words / inhibition at 10 µM: single dose 10 µM; for inhibition at 10 µM: read-out: cell growth inhibition against various cell lines. The text has this:
Aiming to evaluate the general antitumour activity of the synthesised phthalazines, the structures of the final compounds were submitted to National Cancer Institute “NCI” (www.dtp.nci.nih.gov), Bethesda, Maryland, USA. In vitro NCI anticancer screening involves two-stage process, the first stage started with the evaluation of the selected candidates against the full NCI 60 cell lines panel representing leukaemia, non-small cell lung cancer, melanoma, colon, CNS, breast, ovarian, renal and prostate cancers at a single dose of 10 µM. NCI selection is based on degree of structure variation and application of computer modelling techniques to prioritise compounds based on their ability to add diversity to the NCI small molecule compound collection.
Eight compounds (6b, 6e, 7b, 13a, 13c, 16a, 16d and 17a) were selected by NCI for further 5 log dose screening against full NCI 60 cell panel. All the 60 cell lines, representing nine tumour subpanels (leukaemia, non-small cell lung cancer, colon cancer, CNS cancer, prostate cancer, melanoma, ovarian cancer, renal cancer and breast cancer) which were incubated at five different concentrations (0.01, 0.1, 1, 10 and 100 µM) of each of the test compounds. The outcomes were used to create log concentration vs % growth inhibition curves, then three response parameters (GI50, TGI and LC50) were calculated for each cell line, (Tables S4 and S5 in Supplementary material).
The human tumor cell lines of the cancer-screening panel were grown in RPMI 1640 medium containing 5% fetal bovine serum and […] L-glutamine. For a typical screening experiment, cells are inoculated into 96 well microtiter plates in 100 ml at plating densities ranging from 5000 to 40,000 cells/well depending on the doubling time of individual cell lines. After cell inoculation, the microtiter plates are incubated at 37 °C, 5% CO2, 95% air and 100%
relative humidity for 24 h prior to addition of experimental drugs. After 24 h, two plates of each cell line are fixed in situ with TCA, to represent a measurement of the cell population for each cell line at the time of drug addition (Tz). Experimental drugs are dissolved in dimethyl sulfoxide at 400-fold the desired final maximum test concentration and stored frozen prior to use. At the time of drug addition, an aliquot of frozen concentrate is thawed and diluted to twice the desired final maximum test concentration with complete medium containing […] Gentamicin. Additional four, 10-fold or ½log serial dilutions are made to provide a total of five drug concentrations plus control. Aliquots of […] of these different drug dilutions are added to the appropriate microtiter wells already containing 100 ml of medium, resulting in the required final drug concentrations. Following drug addition, the plates are incubated for an additional 48 h at 37 °C, 5% CO2, 95% air, and 100% relative humidity. For adherent cells, the assay is terminated by the addition of cold TCA. Cells are fixed in situ by the gentle addition of […] of cold 50% (w/v) TCA (final concentration,10% TCA) and incubated for 60 min at 4 °C. The supernatant is discarded, and the plates are washed five times with tap water and air dried. Sulforhodamine B (SRB) solution (100 ml) at 0.4% (w/v) in 1% acetic acid is added to each well, and plates are incubated for 10 min at room temperature. After staining, unbound dye is removed by washing five times with 1% acetic acid and the plates are air dried. Bound stain is subsequently dissolved with 10 μM trizma base, and the absorbance is read on an automated plate reader at a wavelength of 515 nm. For suspension cells, the methodology is the same except that the assay is terminated by fixing settled cells at the bottom of the wells by gently adding […] of 80% TCA (final concentration, 16% TCA). […]

A further test has as its system EKVX. Description: NCI 60 cell panel SRB screen. The format is cell-based, human. The settings on record: for GI50 / IC (TGI) / LC50: Homo sapiens, 5 log dose; for LC50: 48 h; for percent cell growth promotion: single dose 10 μM.
For the next test, the system named is SF-539. Briefly: NCI 60 cell panel SRB screen. The format is cell-based, human. As to conditions: for GI50 / IC (TGI) / CC50: Homo sapiens, SF-539, 5 log dose; for CC50: 48 h, read-out: LC50 (the source's name); for percent cell growth promotion: SF-539, single dose 10 μM.
In a further test the test system is SK-MEL-2. Description: NCI 60 cell panel SRB screen. The format is cell-based. As to conditions: for GI50 / IC (TGI) / CC50: Homo sapiens; for IC (TGI): read-out: TGI; for CC50: SK-MEL-2, 5 log dose, 48 h, read-out: LC50 (the source's name); for percent cell growth promotion: SK-MEL-2, single dose 10 μM.
Test [2] relates to full NCI 60 cell panel. Briefly: NCI 60 cell panel SRB screen, whole panel. The format is cell-based, human. As to conditions: Homo sapiens, 60 cell, NCI 5-log dose, full 60 cell panel; read-out: GI50 values, range over the tested cell lines.

13 molecules from publication PMC6691788, “Design and synthesis of phthalazine-based compounds as potent anticancer agents with potential antiangiogenic activity via VEGFR-2 inhibition” (Journal of Enzyme Inhibition and Medicinal Chemistry, 2019) can be followed below.

The term GI50 denotes the concentration that inhibits growth by half. The term LC50 denotes the concentration that kills 50% of the test population. Usually inhibition stands for the relative decrease from the control value, in per cent.

SMILES strings stand for the structures. Some results are limits rather than exact numbers.

As to `Cc1nnc(N2CCN(c3ccccn3)CC2)c2ccccc12` [Compound 8i, 1-Methyl-4–(4-(pyridin-2-yl)piperazin-1-yl)phthalazine], the activity at 10 µM in the test on SW-620 amounted to 113%. Further, in the test with full NCI 60 cell panel [1], the activity at 10 µM worked out at 101%; the “cell growth inhibition, in words” value was “nor the piperazines (8a, 8d, 8f, 8g, 8h and 8i) showed any significant cell line growth inhibition”.
For `O=C(Nc1ccccc1)Nc1ccc(Oc2nnc(Cl)c3ccccc23)cc1` [Compound 13a, 1–(4-(4-Chlorophthalazin-1-yloxy)phenyl)-3-phenylurea], in the test with EKVX, it took 2.31 µM to inhibit growth by half (GI50), the IC (TGI) came to 12.1 µM, the LC50 was above 25 µM and the “percent cell growth promotion” value came out at 29.96%. Also, in the test on SW-620, growth was halved (GI50) at 8.41 µM, the IC (TGI) was above 25 µM, the CC50 is above 25 µM and the activity at 10 µM is 73.4%. Moreover, in the test on SF-539, growth was halved (GI50) at 2.81 µM, the IC (TGI) turned out to be 6.4 µM, the CC50 turned out to be 14.6 µM and the “percent cell growth promotion” value is listed as -22.02%. In the test with SK-MEL-2, the GI50 turned out to be 3.9 µM, the IC (TGI) amounted to 13.2 µM, the CC50 was above 25 µM and the “percent cell growth promotion” value is 9.53%. Moreover, in the test on full NCI 60 cell panel [1], the activity at 10 µM stood at 24.1% and the inhibition at 10 µM is above 90%. In addition, the GI50 in the test with full NCI 60 cell panel [2] is 0.15 to 8.41 µM.
Consider `O=C(Nc1ccc(Cl)cc1)Nc1ccc(Nc2nncc3ccccc23)cc1` [Compound 6b, 1–(4-Chlorophenyl)-3–(4-(phthalazin-1-ylamino)phenyl)urea], for which the GI50 is 2.95 µM with EKVX; 3.16 µM with SW-620; 2.88 µM in the test on SF-539; 2.7 µM in the test with SK-MEL-2; 0.15 to 8.41 µM in the test with full NCI 60 cell panel [2]. The IC (TGI) was 25.3 µM with EKVX, 18.6 µM in the test with SW-620, 11.5 µM with SF-539 and 7.7 µM with SK-MEL-2. The molecule further returned an LC50 in the test on EKVX above 100 µM. The CC50 in the test on SW-620 came to 81.8 µM; with SF-539, 36.6 µM; in the test on SK-MEL-2, 44.8 µM. Moreover, the activity at 10 µM in the test with SW-620 was determined as 27%; with full NCI 60 cell panel [1] it was 25%. The inhibition at 10 µM in the test on full NCI 60 cell panel [1] was above 90%.
On to `Clc1ccc(Nc2nnc(COc3ccccc3)c3ccccc23)cc1` [Compound 17a, N-(4-Chlorophenyl)-4-(phenoxymethyl)phthalazin-1-amine], for which, in the test with EKVX, growth was halved (GI50) at 0.67 µM, the IC (TGI) was 7.32 µM, the LC50 was above 25 µM and the “percent cell growth promotion” value is 6.53%. In the test on SW-620, it took 2.86 µM to inhibit growth by half (GI50), the IC (TGI) came to 7.79 µM, the CC50 came to 21.2 µM and the activity at 10 µM was determined as 15.4%. Besides, in the test with SF-539, the GI50 was determined as 3.12 µM, the IC (TGI) is 7.58 µM, the CC50 came out at 18.4 µM and the “percent cell growth promotion” value is 8.42%. In the test on SK-MEL-2, halving of growth (GI50) required 0.97 µM, the IC (TGI) was 5.13 µM, the CC50 is 15.1 µM and the “percent cell growth promotion” value is -26.47%. Moreover, in the test on full NCI 60 cell panel [1], the activity at 10 µM was -4.07% and the inhibition at 10 µM is above 90%. Further, the 50% growth inhibitory concentration (GI50) with full NCI 60 cell panel [2] was 0.15 to 8.41 µM.
Consider `Cc1nnc(Oc2ccc(NC(=O)Nc3ccc(Cl)cc3)cc2)c2ccccc12` [Compound 7e, 1–(4-Chlorophenyl)-3–(4-(4-methylphthalazin-1-yloxy)phenyl)urea], for which the activity at 10 µM in the test on SW-620 was 95%. Further, in the test with full NCI 60 cell panel [1], the activity at 10 µM came out at 72.8%; the “cell growth inhibition, in words” value was “moderate cell growth inhibition against leukaemia and breast cell lines”.
For the molecule `Cc1nnc(Nc2ccc(NC(=O)c3ccc(Cl)cc3)cc2)c2ccccc12` [Compound 5d, 4-Chloro-N-(4–(4-methylphthalazin-1-ylamino)phenyl)benzamide], the activity at 10 µM with SW-620 was determined as 92.7%; with full NCI 60 cell panel [1], 93%. Also, the “cell growth inhibition, in words” value in the test with full NCI 60 cell panel [1] was “Neither of the biarylamides (5b, and 5d) nor the piperazines (8a, 8d, 8f, 8g, 8h and 8i) showed any significant cell line growth inhibition”.
As to `O=C(Nc1ccc(Nc2nncc3ccccc23)cc1)c1ccc(Cl)cc1` [Compound 5b, 4-Chloro-N-(4-(phthalazin-1-ylamino)phenyl)benzamide], in the test on SW-620, the activity at 10 µM amounted to 102%. Besides, in the test with full NCI 60 cell panel [1], the activity at 10 µM was determined as 101%; the “cell growth inhibition, in words” value was “Neither of the biarylamides (5b, and 5d) nor the piperazines (8a, 8d, 8f, 8g, 8h and 8i) showed any significant cell line growth inhibition”.
Take `O=C(Nc1ccc(Cl)cc1)Nc1ccc(Oc2nnc(Cl)c3ccccc23)cc1` [Compound 13b, 1–(4-Chlorophenyl)-3–(4-(4-chlorophthalazin-1-yloxy)phenyl)urea]: the “percent cell growth promotion” value in the test with EKVX was found to be 62.48%; in the test with SF-539, 84.86%; in the test on SK-MEL-2 it was 93.58%. Moreover, the activity at 10 µM with SW-620 turned out to be 106%; with full NCI 60 cell panel [1], 88.7%. For the same molecule, the “cell growth inhibition, in words” value in the test on full NCI 60 cell panel [1] was “did not show any significant cell line growth inhibition”.
As to `Cc1nnc(N2CCN(c3ccccc3)CC2)c2ccccc12` [Compound 8g, 1-Methyl-4–(4-phenylpiperazin-1-yl)phthalazine], the activity at 10 µM worked out at 107% with SW-620 and 102% with full NCI 60 cell panel [1]. In addition, the “cell growth inhibition, in words” value with full NCI 60 cell panel [1] is “nor the piperazines (8a, 8d, 8f, 8g, 8h and 8i) showed any significant cell line growth inhibition”.
As to `CCOC(=O)N1CCN(c2nncc3ccccc23)CC1` [Compound 8a, Ethyl 4-(phthalazin-1-yl)piperazine-1-carboxylate], the activity at 10 µM in the test with SW-620 is 102%; in the test on full NCI 60 cell panel [1], 105%. Besides, the “cell growth inhibition, in words” value in the test on full NCI 60 cell panel [1] was “nor the piperazines (8a, 8d, 8f, 8g, 8h and 8i) showed any significant cell line growth inhibition”.
For the molecule `c1ccc(N2CCN(c3nncc4ccccc34)CC2)nc1` [Compound 8d, 1–(4-(Pyridin-2-yl)piperazin-1-yl)phthalazine], the activity at 10 µM in the test with SW-620 and in the test on full NCI 60 cell panel [1] was 104% throughout. Besides, in the test on full NCI 60 cell panel [1], the “cell growth inhibition, in words” value was “nor the piperazines (8a, 8d, 8f, 8g, 8h and 8i) showed any significant cell line growth inhibition”.
On to `Cc1nnc(N2CCN(c3ccccc3F)CC2)c2ccccc12` [Compound 8h, 1–(4-(2-Fluorophenyl)piperazin-1-yl)-4-methylphthalazine], for which, in the test with SW-620, the activity at 10 µM was 106%. Moreover, in the test with full NCI 60 cell panel [1], the activity at 10 µM was 99%; the “cell growth inhibition, in words” value is “nor the piperazines (8a, 8d, 8f, 8g, 8h and 8i) showed any significant cell line growth inhibition”.
Turning to `CCOC(=O)N1CCN(c2nnc(C)c3ccccc23)CC1` [Compound 8f, Ethyl 4–(4-methylphthalazin-1-yl)piperazine-1-carboxylate], the activity at 10 µM in the test with SW-620 was 104%; with full NCI 60 cell panel [1], 101%. In the test on full NCI 60 cell panel [1], the “cell growth inhibition, in words” value is “nor the piperazines (8a, 8d, 8f, 8g, 8h and 8i) showed any significant cell line growth inhibition”.
